Source: US7122662B2, “Tricyclic compound having spiro union” (Mochida Pharmaceutical Co., Ltd., priority 1999, dated 2006)

What was measured:
human plasma = assay: Measurement of intrinsic coagulation time (APTT) in vitro; type: biochemical
Experimental: Activated partial thromboplastin time (APTT) is measured in the presence of the test compounds diluted at various concentrations. A test compound diluted with DMSO at various concentrations is mixed with human plasma and APTT reagent. The mixture is incubated at 37° C. for 2 minutes; calcium chloride (25 mM) is added to the mixture; and the coagulation time is thereafter measured. It should be noted that the anticoagulant activity of the test compound is described in terms of the concentration required to double the coagulation time for the case where no test compound is added.

human FXa = molecular target: T1, human FXa (Homo sapiens, UniProt P00742); assay: Measurement of human FXa inhibitory action; type: biochemical; settings: bioassay procedure of Experimental Example 1, a); reference compounds
T1 construct: purchased Enzyme Research Laboratories, Inc
T1 sequence (P00742 235-488 limits assumed): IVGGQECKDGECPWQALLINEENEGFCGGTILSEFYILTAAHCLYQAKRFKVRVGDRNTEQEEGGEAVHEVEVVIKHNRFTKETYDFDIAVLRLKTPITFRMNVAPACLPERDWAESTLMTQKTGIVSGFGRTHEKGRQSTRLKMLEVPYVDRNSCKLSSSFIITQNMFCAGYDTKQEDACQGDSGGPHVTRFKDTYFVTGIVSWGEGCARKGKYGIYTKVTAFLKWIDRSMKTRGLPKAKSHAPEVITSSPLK
T1 sequence (P00742 41-179 partner limits assumed): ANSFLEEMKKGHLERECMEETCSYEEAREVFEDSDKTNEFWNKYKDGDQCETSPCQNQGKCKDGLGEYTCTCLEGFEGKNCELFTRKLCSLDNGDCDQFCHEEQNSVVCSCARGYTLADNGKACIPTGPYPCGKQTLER
Experimental: In vitro FXa inhibitory activity is measured in accordance with the method of Kettner et al. (Journal of Biological Chemistry, vol. 265, pages 18289 to 18297, 1990). To be more specific, human FXa (product of Enzyme Research Laboratories, Inc., 0.019 U/ml) is mixed with a test compound diluted with dimethylsulfoxide (DMSO) at various concentrations and a synthetic substrate S-2222 (Chromogenix AB, 0.4 mM). The mixtures are incubated at 37° C. in Tris-hydrochloric acid buffer (pH 7.5) while the absorbance at 405 nm is measured continuously. To calculate the FXa inhibitory activity of the test compound, the initial reaction velocity is compared with the value for a control containing no test compound. It should be noted that the FXa inhibitory activity of the test compound is generally indicated as IC50.

Compound | Concentration required to double coagulation time (human plasma) [µM] | IC50 (human FXa) [µM]
COCCOC(=O)C12CN(S(=O)(=O)c3ccc4cc(Cl)ccc4c3)CC(=O)N1CC1(CCN(c3ccncc3)CC1)O2 (single isomer, unassigned; (-)) [Example 42, (−)-1,4-diaza-4-(6-chloronaphthalen-2-ylsulfonyl)-6-(2-methoxyethoxycarbonyl)-7-oxa-1′-(4-pyridyl)spiro[bicyclo[4.3.0]nonane-8,4′-piperidin]-2-one] | 0.20 | 
O=C(C(CNS(=O)(=O)c1ccc2cc(Cl)ccc2c1)NCC1CCN(c2ccncc2)CC1)N1CCS(=O)(=O)CC1 (stereo not drawn) [Compound B, 4-[3-(6-chloronaphthalen-2-ylsulfoneamide)-2-[l-(4-pyridyl)piperidin-4-ylmethyl]aminopropionyl]-1,1-dioxothiomorpholine] |  | 31
CCOC(=O)[C@H]1CN(S(=O)(=O)c2ccc3cc(Cl)ccc3c2)CC(=O)N1CC1CCN(c2ccncc2)CC1 [Compound C, (R)-4-(6-chloronaphthalen-2-ylsulfonyl)-6-ethoxycarbonyl-l-[1-(4-pyridyl)piperidin-4-ylmethyl]piperazin-2-one] |  | 28
O=C(O)COCC12CN(S(=O)(=O)c3ccc4cc(Cl)ccc4c3)CC(=O)N1CC1(CCN(c3ccncc3)CC1)O2 (stereo not drawn) [Example 5, 1,4-diaza-4-(6-chloronaphthalen-2-ylsulfonyl)-6-(carboxymethoxymethyl)-7-oxa-1′-(4-pyridyl)spiro[bicyclo[4.3.0]nonane-8,4′-piperidin]-2-one] | 0.43 | 
COCC12CN(S(=O)(=O)c3ccc4ccccc4c3)CC(=O)N1CC1(CCN(c3ccncc3)CC1)O2 (stereo not drawn) [Example 6, 1,4-diaza-6-(methoxymethyl)-4-(2-naphthalenesulfonyl)-7-oxa-1′-(4-pyridyl)spiro[bicyclo[4.3.0]nonane-8,4′-piperidin]-2-one] | 0.99 | 
O=C1CN(S(=O)(=O)c2ccc3cc(Cl)ccc3c2)CC2OC3(CCN(c4ccncc4)CC3)CN12 (stereo not drawn) [Example 9, 1,4-diaza-4-(6-chloronaphthalen-2-ylsulfonyl)-7-oxa-1′-(4-pyridyl)spiro[bicyclo[4.3.0]nonane-8,4′-piperidin]-2-one] | 0.29 | 
COCC12CN(S(=O)(=O)c3ccc4cc(Cl)ccc4c3)CC(=O)N1CC1(CCN(c3cc[n+](C)cc3)CC1)O2.Cc1ccc(S(=O)(=O)[O-])cc1 (stereo not drawn) [Example 23, 4-[1,4-diaza-4-(6-chloronaphthalen-2-ylsulfonyl)-6-(methoxymethyl)-7-oxa-2-oxospiro[bicyclo[4.3.0]nonane-8,4′-piperidin-1′-yl]]-1-methylpyridinium p-toluenesulfonate] | 0.62 | 
CC(C)OC(=O)C12CN(S(=O)(=O)c3ccc4cc(Cl)ccc4c3)CC(=O)N1CC1(CCN(c3ccncc3)CC1)O2 (stereo not drawn) [Example 29, 1,4-diaza-4-(6-chloronaphthalen-2-ylsulfonyl)-6-(isopropoxycarbonyl)-7-oxa-1′-(4-pyridyl)spiro[bicyclo[4.3.0]nonane-8,4′-piperidin]-2-one] | 0.90 | 
NCC12CN(S(=O)(=O)c3ccc4cc(Cl)ccc4c3)CC(=O)N1CC1(CCN(c3ccncc3)CC1)O2 (stereo not drawn) [Example 58, 6-(aminomethyl)-1,4-diaza-4-(6-chloronaphthalen-2-ylsulfonyl)-7-oxa-1′-(4-pyridyl)spiro[bicyclo[4.3.0]nonane-8,4′-piperidin]-2-one] | 0.18 | 
CC12CN(S(=O)(=O)c3ccc4cc(Cl)ccc4c3)CC(=O)N1CC1(CCN(c3ccncc3)CC1)O2 (stereo not drawn) [Example 69, 1,4-diaza-4-(6-chloronaphthalen-2-ylsulfonyl)-6-methyl-7-oxa-1′-(4-pyridyl)spiro[bicyclo[4.3.0]nonane-8,4′-piperidin]-2-one] | 0.36 | 
O=C1CN(S(=O)(=O)c2cc3ccc(Cl)cc3s2)CC2NC3(CCN(c4ccncc4)CC3)CN12 (stereo not drawn) [Example 275, 1,4,7-triaza-4-(6-chlorobenzo[b]thiophen-2-ylsulfonyl)-1′-(4-pyridyl)spiro[bicyclo[4.3.0]nonane-8,4′-piperidin]-2-one] | 0.17 | 
COCC12CN(S(=O)(=O)C3=Cc4ccc(Cl)cc4OC3)CC(=O)N1CC1(CCN(c3ccncc3)CC1)O2 (stereo not drawn) [Example 388, 1,4-diaza-4-(7-chloro-2H-benzopyran-3-sulfonyl)-6-(methoxymethyl)-7-oxa-1′-(4-pyridyl)spiro[bicyclo[4.3.0]nonane-8,4′-piperidin]-2-one] | 0.22 | 
COCC12CN(S(=O)(=O)c3cc4ccc(Cl)cc4s3)CC(=O)N1CC1(CCN(c3ccncc3)CC1)O2 (stereo not drawn) [Example 399, 1,4-diaza-4-(6-chlorobenzo[b]thiophen-2-ylsulfonyl)-6-(methoxymethyl)-7-oxa-1′-(4-pyridyl)spiro[bicyclo[4.3.0]nonane-8,4′-piperidin]-2-one] | 0.18 | 
COCC12CN(S(=O)(=O)c3cc4ccc(Cl)cc4s3)CC(=O)N1CC1(CCN(c3ccncc3)CC1)N2 (stereo not drawn) [Example 461, 1,4,7-triaza-4-(6-chlorobenzo[b]thiophen-2-ylsulfonyl)-6-(methoxymethyl)-1′-(4-pyridyl)spiro[bicyclo[4.3.0]nonane-8,4′-piperidin]-2-one] | 0.16 | 
COCC12CN(S(=O)(=O)c3cc4cc(Cl)ccc4o3)CC(=O)N1CC1(CCN(c3ccncc3)CC1)N2 (stereo not drawn) [Example 471, 1,4,7-triaza-4-(5-chlorobenzo[b]furan-2-ylsulfonyl)-6-(methoxymethyl)-1′-(4-pyridyl)spiro[bicyclo[4.3.0]nonane-8,4′-piperidin]-2-one] | 0.27 | 
COCC12CN(S(=O)(=O)c3cc4cc(Cl)ccc4o3)CC(=O)N1CC1(CCN(c3ccncc3)CC1)N2C (stereo not drawn) [Example 533, 1,4,7-triaza-4-(5-chlorobenzo[b]furan-2-ylsulfonyl)-6-(methoxymethyl)-7-methyl-1′-(4-pyridyl)spiro[bicyclo[4.3.0]nonane-8,4′-piperidin]-2-one] | 0.35 | 
O=C1CN(S(=O)(=O)C=Cc2ccc(Cl)s2)CC2OC3(CCN(c4ccncc4)CC3)CN12 (stereo not drawn) [Example 600, 1,4-diaza-4-[2-(5-chlorothiophen-2-yl)ethenesulfonyl]-7-oxa-1′-(4-pyridyl)spiro[bicyclo[4.3.0]nonane-8,4′-piperidin]-2-one] | 0.22 | 
COCC12CN(S(=O)(=O)C=Cc3ccc(Cl)s3)CC(=O)N1CC1(CCN(c3ccncc3)CC1)N2C (stereo not drawn) [Example 740, 1,4,7-triaza-4-[2-(5-chlorothiophen-2-yl)ethenesulfonyl]-6-(methoxymethyl)-7-methyl-1′-(4-pyridyl)spiro[bicyclo[4.3.0]nonane-8,4′-piperidin]-2-one] | 0.18 | 
